Converted amounts (≈) assume the structure as drawn. Where a name gives a salt, the structure may show the parent alone.
Experiments:
[1] = tested on: murine melanoma B16-F10 cells; test: cells; conditions: Mus musculus, B16-F10, 72 h, read-out: Cytotoxicity IC50
Experimental: For in vitro cytotoxicity experiment, murine melanoma B16-F10 cells were grown and maintained in Eagle's minimum essential medium (Nissui), which contains kanamycin (60 μg/ml), supplemented with heat-inactivated fetal calf serum (10%) and nonessential amino acids (0.6%) at 37° C. under a humidified atmosphere in a 5% CO2 incubator. Exponentially growing B16-F10 cells were harvested, counted and suspended in the culture medium at the concentration of 2.0×10^4 cells/ml. The cell suspension (180 μl) was planted into wells of a 96-well microtiter plate and incubated for 24 hours. Test compounds (20 μl) were added to the wells and the plates were further incubated for 72 hours. The cytotoxic activity was colorimetrically determined at 540 nm after staining viable cells with neutral red solution.

[2] = tested on: lymphocytic leukemia P388; test: In vivo antitumor activity against P388 leukemia in mice; parameters: species or system mice (female CDF1); conditions: for prolongation of life-span in the P388-bearing mice / times less active than the parent compound in terms of minimum effective doses (MED): P388, Q1Dx3, ip; for times less active than the parent compound in terms of minimum effective doses (MED): relative to elsamicin A
Experimental: (§1) Among the derivatives tested, in vivo antitumor activity of six derivatives showing relatively potent cytotoxicity was tested in the lymphocytic leukemia P388 and B16 melanoma systems. Female CDF1 (for P388) and male BDF1 (for B16) mice were inoculated by ip injection at 10^6 P388 cells and 0.5 ml of a 10% B16 brei per mouse, respectively (day 0). […] The percent increase of median survival time (MST) of treated animals over that of untreated control animals was determined and reported as T/C %. Compounds showing T/C % values of 125 or greater are considered to have significant antitumor activity. […] The others had no activity at the doses tested. Derivatives 4d, 4e, and 5 when tested in the B16 system, also gave 10-30 times less antitumor activity than elsamicin A in terms of MED (Table 5).

[3] = tested on: B16 melanoma; test: In vivo antitumor activity against B16 melanoma in mice; parameters: species or system mice (male BDF1); conditions: B16, Q4Dx3 ip; relative to elsamicin A
Experimental: as §1

For `CO[C@H]1[C@@H](O)[C@@H](C)O[C@H](O[C@H]2[C@H](Oc3cccc4c(O)c5c(=O)oc6ccc(C)c7c(=O)oc(c34)c5c67)O[C@H](C)[C@H](O)[C@]2(C)O)[C@@H]1NC(=O)CN` [Compound 3d, 2"-N-Glycylelsamicin A], the IC50 [1] was 4.1 µg/mL (≈ 5.77 µM).
In the case of `CO[C@@H]1[C@@H](N)[C@@H](O[C@H]2[C@H](Oc3cccc4c(O)c5c(=O)oc6ccc(C)c7c(=O)oc(c34)c5c67)O[C@H](C)[C@H](O)[C@]2(C)O)O[C@H](C)[C@@H]1O` [Compound 1, Elsamicin A], the “T/C % of MST” value ([2]; P388, 20 mg/kg/day, Q1Dx3, ip) is reported as “Tox”.
`CO[C@H]1[C@@H](O)[C@@H](C)O[C@H](O[C@H]2[C@H](Oc3cccc4c(O)c5c(=O)oc6ccc(C)c7c(=O)oc(c34)c5c67)O[C@H](C)[C@H](O)[C@]2(C)O)[C@@H]1NC(C)C` [Compound 4a, 2"-N-Isopropylelsamicin A] was tested, and the IC50 [1] was 1.5 µg/mL (≈ 2.16 µM), the “prolongation of life-span in the P388-bearing mice” value (shortened to “prolongation of life-span”) [2] was “quite limited prolongation of life-span” and the “times less active than the parent compound in terms of minimum effective doses (MED)” value [2] was 10-30 times.
In the case of `CN[C@H]1[C@@H](O[C@H]2[C@H](Oc3cccc4c(O)c5c(=O)oc6ccc(C)c7c(=O)oc(c34)c5c67)O[C@H](C)[C@H](O)[C@]2(C)O)O[C@H](C)[C@H](O)[C@@H]1OC` [Compound 4d, 2"-N-Methylelsamicin A], the IC50 [1] is reported as 1.7 µg/mL (≈ 2.55 µM), the “times less antitumor activity than elsamicin A in terms of MED” value [3] is reported as 10-30 times and the “prolongation of life-span” value [2] is reported as “quite limited prolongation of life-span”. For the same compound, the “times less active than the parent compound in terms of minimum effective doses (MED)” value [2] was 10-30 times.
`CO[C@H]1[C@@H](O)[C@@H](C)O[C@H](O[C@H]2[C@H](Oc3cccc4c(O)c5c(=O)oc6ccc(C)c7c(=O)oc(c34)c5c67)O[C@H](C)[C@H](O)[C@]2(C)O)[C@@H]1N1CCOCC1` [Compound 4f, 2"-Deamino-2"-morpholinoelsamicin A] showed an IC50 [1] of 11 µg/mL (≈ 15.2 µM).
Compound `CO[C@H]1[C@@H](O)[C@@H](C)O[C@H](O[C@H]2[C@H](Oc3cccc4c(O)c5c(=O)oc6ccc(C)c7c(=O)oc(c34)c5c67)O[C@H](C)[C@H](O)[C@]2(C)O)[C@@H]1NC(=O)CCC(=O)O` [Compound 3b, 2"-N-(3-Carboxypropionyl)elsamicin A] has an IC50 [1] of 56 µg/mL (≈ 74.3 µM).
For `CO[C@H]1[C@@H](O)[C@@H](C)O[C@H](O[C@H]2[C@H](Oc3cccc4c(O)c5c(=O)oc6ccc(C)c7c(=O)oc(c34)c5c67)O[C@H](C)[C@H](O)[C@]2(C)O)[C@@H]1NC=N` [Compound 5, 2"-N-Formimidoylelsamicin A hydrochloride], the IC50 [1] was 0.47 µg/mL, the “times less antitumor activity than elsamicin A in terms of MED” value [3] was 10-30 times and the “prolongation of life-span” value [2] was “quite limited prolongation of life-span”. The “times less active than the parent compound in terms of minimum effective doses (MED)” value [2] was 10-30 times.
Compound `CO[C@H]1[C@@H](O)[C@@H](C)O[C@H](O[C@H]2[C@H](Oc3cccc4c(O)c5c(=O)oc6ccc(C)c7c(=O)oc(c34)c5c67)O[C@H](C)[C@H](O)[C@]2(C)O)[C@@H]1NC(C)=O` [Compound 3a, 2"-N-Acetylelsamicin A] has an IC50 [1] of 55 µg/mL (≈ 79.1 µM).
`CO[C@H]1[C@@H](O)[C@@H](C)O[C@H](O[C@H]2[C@H](Oc3cccc4c(O)c5c(=O)oc6ccc(C)c7c(=O)oc(c34)c5c67)O[C@H](C)[C@H](O)[C@]2(C)O)[C@@H]1N(C)C` [Compound 4e, 2"-N,N-Dimethylelsamicin A] was tested, and the IC50 [1] was 0.36 µg/mL (≈ 0.528 µM), the “times less antitumor activity than elsamicin A in terms of MED” value [3] was 10-30 times and the “prolongation of life-span” value [2] was “quite limited prolongation of life-span”. The “times less active than the parent compound in terms of minimum effective doses (MED)” value [2] was 10-30 times.
